Data as given in PubChem BioAssay AID1259407 (Chemical Carcinogenesis Research Information System (CCRIS), 2018).
Activity calls are given as the source filed them. No rule for the calls is given here.

System: CCRIS mutagenicity, Ames/micronucleus/aberration tests
Assay: CCRIS mutagenicity studies
[1] = Test System: AMES SALMONELLA TYPHIMURIUM, Strain/Indicator: TA98, Metabolic Activation: NONE, Method: PREINCUBATION
[2] = Test System: AMES SALMONELLA TYPHIMURIUM, Strain/Indicator: TA100, Metabolic Activation: NONE, Method: PREINCUBATION
[3] = Test System: AMES SALMONELLA TYPHIMURIUM, Strain/Indicator: TA1535, Metabolic Activation: NONE, Method: PREINCUBATION
[4] = Test System: AMES SALMONELLA TYPHIMURIUM, Strain/Indicator: TA1537, Metabolic Activation: NONE, Method: PREINCUBATION
[5] = Test System: AMES SALMONELLA TYPHIMURIUM, Strain/Indicator: TA100, Metabolic Activation: NONE, Method: STANDARD PLATE
[6] = Test System: AMES SALMONELLA TYPHIMURIUM, Strain/Indicator: TA100, Metabolic Activation: S-9, Method: STANDARD PLATE
[7] = Test System: AMES SALMONELLA TYPHIMURIUM, Strain/Indicator: TA1537, Metabolic Activation: NONE, Method: STANDARD PLATE

`Oc1cc(Cl)ccc1Cl` was tested, and the mutagenic call (Test System: AMES SALMONELLA TYPHIMURIUM, Strain/Indicator: TA98, Metabolic Activation: HAMSTER, LIVER, S-9, AROCLOR 1254, Method: PREINCUBATION) was “inactive; negative”, the mutagenic call [1] was “inactive; negative” and the mutagenic call (Test System: AMES SALMONELLA TYPHIMURIUM, Strain/Indicator: TA98, Metabolic Activation: RAT, LIVER, S-9, AROCLOR 1254, Method: PREINCUBATION) was “inactive; negative”. For the same molecule, the mutagenic call (Test System: AMES SALMONELLA TYPHIMURIUM, Strain/Indicator: TA100, Metabolic Activation: HAMSTER, LIVER, S-9, AROCLOR 1254, Method: PREINCUBATION) was “inactive; negative”, the mutagenic call [2] was “inactive; negative” and the mutagenic call (Test System: AMES SALMONELLA TYPHIMURIUM, Strain/Indicator: TA100, Metabolic Activation: RAT, LIVER, S-9, AROCLOR 1254, Method: PREINCUBATION) was “inactive; negative”. For the same molecule, the mutagenic call (Test System: AMES SALMONELLA TYPHIMURIUM, Strain/Indicator: TA1535, Metabolic Activation: HAMSTER, LIVER, S-9, AROCLOR 1254, Method: PREINCUBATION) was “inactive; negative”, the mutagenic call [3] was “inactive; negative” and the mutagenic call (Test System: AMES SALMONELLA TYPHIMURIUM, Strain/Indicator: TA1535, Metabolic Activation: RAT, LIVER, S-9, AROCLOR 1254, Method: PREINCUBATION) was “inactive; negative”. For the same molecule, the mutagenic call (Test System: AMES SALMONELLA TYPHIMURIUM, Strain/Indicator: TA1537, Metabolic Activation: HAMSTER, LIVER, S-9, AROCLOR 1254, Method: PREINCUBATION) was “inactive; negative”, the mutagenic call [4] was “inactive; negative” and the mutagenic call (Test System: AMES SALMONELLA TYPHIMURIUM, Strain/Indicator: TA1537, Metabolic Activation: RAT, LIVER, S-9, AROCLOR 1254, Method: PREINCUBATION) was “inactive; negative”. For the same molecule, the mutagenic call (Test System: CHINESE HAMSTER OVARY CELLS, Strain/Indicator: CHO-K1-BH4 (HPRT)/6-THIOGUANINE, Metabolic Activation: NONE, Method: PREINCUBATION) was “inactive; negative” and the mutagenic call (Test System: CHINESE HAMSTER OVARY CELLS, Strain/Indicator: CHO-K1-BH4 (HPRT)/6-THIOGUANINE, Metabolic Activation: S-9, Method: PREINCUBATION) was “inactive; negative”.
With `COc1ccc2c(ccc3oc([N+](=O)[O-])cc32)c1` the mutagenic call (Test System: AMES SALMONELLA TYPHIMURIUM, Strain/Indicator: TA100(NR), Metabolic Activation: NONE, Method: STANDARD PLATE) was “active; positive” and the mutagenic call [5] was “active; positive”.
With `CCc1c2ccccc2cc2c1ccc1ccccc12` the mutagenic call (Test System: AMES SALMONELLA TYPHIMURIUM, Strain/Indicator: TA98, Method: STANDARD PLATE) was “active; positive”, the mutagenic call (Test System: AMES SALMONELLA TYPHIMURIUM, Strain/Indicator: TA100, Metabolic Activation: RAT, LIVER, S-9, PHENOBARBITAL, Method: STANDARD PLATE) was “inactive; negative” and the mutagenic call (Test System: AMES SALMONELLA TYPHIMURIUM, Strain/Indicator: TA100, Method: STANDARD PLATE) was “active; positive”.
For `CCCCCCCC(=O)Nc1snc2ccccc12`, the mutagenic call [5] was “inactive; negative”, the mutagenic call [6] was “inactive; negative” and the mutagenic call [7] was “inactive; negative”. The mutagenic call (Test System: AMES SALMONELLA TYPHIMURIUM, Strain/Indicator: TA1537, Metabolic Activation: S-9, Method: STANDARD PLATE) was “inactive; negative”.
In the case of `Cc1ncc([N+](=O)[O-])n1CC(O)CCl` (stereo unspecified), the mutagenic call (End Point: IN VITRO CHROMOSOMAL ABERRATIONS, Test System: HUMAN LYMPHOCYTES, Metabolic Activation: NONE) was “active; positive (structural changes)”.
For `CC(C)(C)c1cc(Cc2cc(C(C)(C)C)c(O)c(C(C)(C)C)c2)cc(C(C)(C)C)c1O`, the mutagenic call (Test System: AMES SALMONELLA TYPHIMURIUM, Strain/Indicator: TA97, Metabolic Activation: NONE, Method: STANDARD PLATE) was “inactive; negative”, the mutagenic call (Test System: AMES SALMONELLA TYPHIMURIUM, Strain/Indicator: TA97, Metabolic Activation: S-9, Method: STANDARD PLATE) was “inactive; negative” and the mutagenic call (Test System: AMES SALMONELLA TYPHIMURIUM, Strain/Indicator: TA98, Metabolic Activation: NONE, Method: STANDARD PLATE) was “inactive; negative”. The mutagenic call (Test System: AMES SALMONELLA TYPHIMURIUM, Strain/Indicator: TA98, Metabolic Activation: S-9, Method: STANDARD PLATE) was “inactive; negative”, the mutagenic call [5] was “inactive; negative” and the mutagenic call [6] was “inactive; negative”. For the same molecule, the mutagenic call (Test System: AMES SALMONELLA TYPHIMURIUM, Strain/Indicator: TA102, Metabolic Activation: NONE, Method: STANDARD PLATE) was “inactive; negative”, the mutagenic call (Test System: AMES SALMONELLA TYPHIMURIUM, Strain/Indicator: TA102, Metabolic Activation: S-9, Method: STANDARD PLATE) was “inactive; negative” and the mutagenic call (Test System: E.COLI, Strain/Indicator: WP2 (PKM101), Metabolic Activation: NONE, Method: STANDARD PLATE) was “inactive; negative”. The mutagenic call (Test System: E.COLI, Strain/Indicator: WP2 (PKM101), Metabolic Activation: S-9, Method: STANDARD PLATE) was “inactive; negative”.
With `COc1cc(O)ccc1Nc1c2ccccc2nc2ccccc12` the mutagenic call [7] was “active; positive”.
`CCCCCCCCCCCCCO` was tested, and the mutagenic call [1] was “inactive; negative”, the mutagenic call (Test System: AMES SALMONELLA TYPHIMURIUM, Strain/Indicator: TA98, Metabolic Activation: RAT LIVER S-9, PHENOBARBITAL AND BETA-NAPHTHOFLAVONE, Method: PREINCUBATION) was “inactive; negative” and the mutagenic call [2] was “inactive; negative”. For the same molecule, the mutagenic call (Test System: AMES SALMONELLA TYPHIMURIUM, Strain/Indicator: TA100, Metabolic Activation: RAT LIVER S-9, PHENOBARBITAL AND BETA-NAPHTHOFLAVONE, Method: PREINCUBATION) was “inactive; negative”, the mutagenic call [3] was “inactive; negative” and the mutagenic call (Test System: AMES SALMONELLA TYPHIMURIUM, Strain/Indicator: TA1535, Metabolic Activation: RAT LIVER S-9, PHENOBARBITAL AND BETA-NAPHTHOFLAVONE, Method: PREINCUBATION) was “inactive; negative”. For the same molecule, the mutagenic call [4] was “inactive; negative”, the mutagenic call (Test System: AMES SALMONELLA TYPHIMURIUM, Strain/Indicator: TA1537, Metabolic Activation: RAT LIVER S-9, PHENOBARBITAL AND BETA-NAPHTHOFLAVONE, Method: PREINCUBATION) was “inactive; negative” and the mutagenic call (Test System: E.COLI, Strain/Indicator: WP2UVRA/PKM101, Metabolic Activation: NONE, Method: PREINCUBATION) was “inactive; negative”. The mutagenic call (Test System: E.COLI, Strain/Indicator: WP2UVRA/PKM101, Metabolic Activation: RAT LIVER S-9, PHENOBARBITAL AND BETA-NAPHTHOFLAVONE, Method: PREINCUBATION) was “inactive; negative”.
`Cn1cnc([N+](=O)[O-])c1Sc1ncnc2nc[nH]c12` was tested, and the mutagenic call (Test System: AMES SALMONELLA TYPHIMURIUM, Strain/Indicator: TA98, Metabolic Activation: HAMSTER, LIVER, S-9, AROCLOR 1254 (30%), Method: PREINCUBATION) was “inactive; negative”, the mutagenic call [1] was “inactive; negative” and the mutagenic call (Test System: AMES SALMONELLA TYPHIMURIUM, Strain/Indicator: TA98, Metabolic Activation: RAT, LIVER, S-9, AROCLOR 1254 (30%), Method: PREINCUBATION) was “inactive; negative”. For the same molecule, the mutagenic call (Test System: AMES SALMONELLA TYPHIMURIUM, Strain/Indicator: TA100, Metabolic Activation: HAMSTER, LIVER, S-9, AROCLOR 1254 (30%), Method: PREINCUBATION) was “active; positive”, the mutagenic call [2] was “active; positive” and the mutagenic call (Test System: AMES SALMONELLA TYPHIMURIUM, Strain/Indicator: TA100, Metabolic Activation: RAT, LIVER, S-9, AROCLOR 1254 (30%), Method: PREINCUBATION) was “active; positive”.
